Converted amounts (≈) assume the structure as drawn.

The term IC50 denotes the midpoint of a concentration-inhibition curve.

Common to all, as to assay: cells
In data set [1] the test system is A549 cells. To be noted: for IC50: Homo sapiens, A549, 48 h, read-out: IC50 against A549; for IC50 against A549: WST-1, 48 h, mean ± SD (n = 6). Here is the method:
(§1) Cell viability were analysed using the WST-1 cell proliferation reagent according to the earlier described technique. All cells (1 × 10^4 cells/well) were treated for 48 h with concentrations ranging from 0–200 µg/ml of ETME, ascorbic acid, catechin, tannic acid, reserpine, methyl gallate and rutin. Cell proliferation and viability were measured by measuring absorbance of the coloured product spectrophotometrically at 460 nm using a microplate ELISA reader […] EX (Thermo Electron Corporation, USA).
(§2) All spectrophotometric data were presented as the mean six times ±SD and cell cycle and ROS analysis data by FACS was introduced as the mean three times ±SD. The statistical analysis was determined by KyPlot version 2.0 beta 15 (32 bit). […] The IC50 values were compared by paired t test. P < 0.05 was considered significant.

Data set [2] deals with MCF-7 cells. To be noted: for IC50: Homo sapiens, MCF7, 48 h, read-out: IC50 against MCF-7; for IC50 against MCF-7: WST-1, 48 h, mean ± SD (n = 6). How it is done: as §1, §2
(In general: Formazan colour is commonly taken as a measure of viable cells.)

In data set [3] the test system is WI-38 cells. To be noted: for IC50: Homo sapiens, WI-38, 48 h, read-out: IC50 against WI-38; for IC50 against WI-38: WST-1, 48 h, mean ± SD (n = 6). Here is the method:
as §1, §2

With `O=C1O[C@H]([C@@H](O)CO)C(O)=C1O` [Ascorbic acid, reference compound], in data set [1], the “cytotoxicity against A549 cells” value is on record as “negligible cytotoxicity” and the IC50 amounted to 6020 ± 3440 µg/mL (≈ 34200 µM). Moreover, in data set [2], the “cytotoxicity against MCF-7 cells” value is recorded as “toxic” and the concentration for half-maximal inhibition (IC50) was 79.1 ± 2.2 µg/mL (≈ 449 µM). In data set [3], the “cytotoxicity against WI-38 cells” value is “negligible cytotoxicity” and the half-maximal inhibitory concentration (IC50) was determined as 6800 ± 2250 µg/mL (≈ 38600 µM).

Consider `O.Oc1cc(O)c2c(c1)O[C@H](c1ccc(O)c(O)c1)[C@@H](O)C2` [Catechin], for which, in data set [1], the “cytotoxicity against A549 cells” value is given as “negligible cytotoxicity” and the “IC50 against A549” value was found to be 4010.65 ± 1849.57 µg/mL. Further, in data set [2], the “cytotoxicity against MCF-7 cells” value was “toxic” and the “IC50 against MCF-7” value amounted to 256.52 ± 17.14 µg/mL. Further, in data set [3], the “cytotoxicity against WI-38 cells” value is on record as “negligible cytotoxicity” and the “IC50 against WI-38” value came out at 753.56 ± 31.99 µg/mL.

Take `COC(=O)c1cc(O)c(O)c(O)c1` [Methyl gallate]: in data set [1], the “cytotoxicity against A549 cells” value is given as “promissive cytotoxicity” and the IC50 was determined as 77.2 ± 1.82 µg/mL (≈ 420 µM). Further, in data set [2], the “cytotoxicity against MCF-7 cells” value is “promissive cytotoxicity” and the IC50 was determined as 53 ± 1.91 µg/mL (≈ 288 µM). For the same molecule, in data set [3], the “cytotoxicity against WI-38 cells” value is reported as “promissive cytotoxicity” and the IC50 amounted to 344 ± 31.3 µg/mL (≈ 1870 µM).

As to `COC(=O)[C@H]1[C@H]2C[C@@H]3c4[nH]c5cc(OC)ccc5c4CCN3C[C@H]2C[C@@H](OC(=O)c2cc(OC)c(OC)c(OC)c2)[C@@H]1OC` [Reserpine, reference compound], in data set [1], the “cytotoxicity against A549 cells” value was “promissive cytotoxicity” and the half-maximal inhibitory concentration (IC50) came out at 68.5 ± 1.73 µg/mL (≈ 112 µM). In addition, in data set [2], the “cytotoxicity against MCF-7 cells” value is reported as “promissive cytotoxicity” and the IC50 amounted to 57.3 ± 2.29 µg/mL (≈ 94.1 µM). Besides, in data set [3], the “cytotoxicity against WI-38 cells” value was “promissive cytotoxicity” and the IC50 is 50.5 ± 1.48 µg/mL (≈ 82.9 µM).

`C[C@@H]1O[C@@H](OC[C@H]2O[C@@H](Oc3c(-c4ccc(O)c(O)c4)oc4cc(O)cc(O)c4c3=O)[C@H](O)[C@@H](O)[C@@H]2O)[C@H](O)[C@H](O)[C@H]1O` [Rutin]: in data set [1], the “cytotoxicity against A549 cells” value is given as “negligible cytotoxicity” and the half-maximal inhibitory concentration (IC50) was 4180 ± 1610 µg/mL (≈ 6840 µM). In data set [2], the “cytotoxicity against MCF-7 cells” value is listed as “toxic” and the IC50 came to 271 ± 9.85 µg/mL (≈ 444 µM). In data set [3], the “cytotoxicity against WI-38 cells” value was “negligible cytotoxicity” and the IC50 turned out to be 1230 ± 195 µg/mL (≈ 2020 µM).

Regarding Tannic acid, in data set [1], the “cytotoxicity against A549 cells” value was “promissive cytotoxicity” and the “IC50 against A549” value worked out at 302.25 ± 11.86 µg/mL. Moreover, in data set [2], the “cytotoxicity against MCF-7 cells” value is recorded as “promissive cytotoxicity” and the “IC50 against MCF-7” value is 97.24 ± 4.89 µg/mL. For the same molecule, in data set [3], the “cytotoxicity against WI-38 cells” value is recorded as “promissive cytotoxicity” and the “IC50 against WI-38” value came out at 308.32 ± 8.32 µg/mL.
